target: T1, human androgen receptor (Homo sapiens, UniProt P10275); assay: Androgenic activity (potency) in vitro bioassay, CHO-AR-pMMTV-LUC 1G12-A5-CA cells, luciferase reporter; type: cell-based; conditions: CHO cells stably transfected with human androgen receptor and MMTV-luciferase reporter; in the presence of 0.1 μmol/l onapristone; potencies expressed as percentage of DHT activity (maximal efficacy with 100 nmol/l DHT set as 100%)
T1 construct: expressed in transfected cells; host or cells: Chinese hamster ovary (CHO) cells, line CHO-AR-pMMTV-LUC 1G12-A5-CA
T1 sequence (P10275 1-920): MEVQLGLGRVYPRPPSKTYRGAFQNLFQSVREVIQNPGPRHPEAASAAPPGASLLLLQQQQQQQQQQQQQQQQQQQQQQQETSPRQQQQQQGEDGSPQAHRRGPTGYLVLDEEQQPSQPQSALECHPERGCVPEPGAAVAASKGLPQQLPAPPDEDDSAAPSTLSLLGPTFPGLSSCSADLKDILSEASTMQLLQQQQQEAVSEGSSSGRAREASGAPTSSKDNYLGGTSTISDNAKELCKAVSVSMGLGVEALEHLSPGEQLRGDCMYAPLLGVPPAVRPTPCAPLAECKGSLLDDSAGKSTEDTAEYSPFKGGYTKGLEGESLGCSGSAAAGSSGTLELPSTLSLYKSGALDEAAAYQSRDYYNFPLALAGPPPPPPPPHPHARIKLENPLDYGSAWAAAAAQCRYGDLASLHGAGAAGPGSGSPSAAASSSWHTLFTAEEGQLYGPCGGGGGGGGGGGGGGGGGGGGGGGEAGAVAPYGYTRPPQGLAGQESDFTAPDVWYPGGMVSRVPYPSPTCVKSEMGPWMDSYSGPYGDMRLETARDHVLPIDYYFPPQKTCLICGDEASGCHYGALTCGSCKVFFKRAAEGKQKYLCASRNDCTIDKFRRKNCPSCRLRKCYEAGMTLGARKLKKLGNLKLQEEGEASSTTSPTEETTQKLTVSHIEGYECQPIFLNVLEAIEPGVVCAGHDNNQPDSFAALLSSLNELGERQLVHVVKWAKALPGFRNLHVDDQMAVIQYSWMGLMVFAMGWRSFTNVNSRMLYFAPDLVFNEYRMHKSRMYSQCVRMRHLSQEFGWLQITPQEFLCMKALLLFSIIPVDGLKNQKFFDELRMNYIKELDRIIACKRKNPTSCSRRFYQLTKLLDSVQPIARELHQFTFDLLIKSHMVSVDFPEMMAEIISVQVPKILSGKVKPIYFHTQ
Protocol: The androgenic activity (potency) of the compounds of the invention was determined in an in vitro bioassay of Chinese hamster ovary (CHO) cells stably transfected with the human androgen receptor expression plasmid and a reporter plasmid in which the MMTV promoter is linked to the luciferase reporter gene. The cell line CHO-AR-pMMTV-LUC 1G12-A5-CA is described in Schoonen et al. (J. Steroid Biochem. Molec. Biol. 2002; 74: 213-222). The androgen receptor activity of compounds was determined in the presence of 0.1 μmol/l onapristone. The maximal efficacy in the presence of 100 nmol/1 DHT was set as 100%. The potencies are expressed as percentage of DHT activity.

Compound	Potency (%)
N#Cc1ccccc1Sc1cn(Cc2cc(F)cc(F)c2)c2cc(NCCO)ccc12 [Example 21h]	2.9%
CNc1ccc2c(Sc3ccccc3[N+](=O)[O-])cn(Cc3cncnc3)c2c1 [Example 5g, Methyl-[3-(2-nitro-phenylsulfanyl)-1-pyrimidin-5-ylmethyl-1H-indol-6-yl]-amine]	21.6%
COCCNc1ccc2c(Sc3ccccc3[N+](=O)[O-])cn(Cc3cc(F)cc(F)c3)c2c1 [Example 21c]	11.4%
COCCNc1ccc2c(Sc3ccccc3[N+](=O)[O-])cn(Cc3cccnc3)c2c1 [Example 21f, (2-Methoxy-ethyl)-[3-(2-nitro-phenylsulfanyl)-1-pyridin-3-ylmethyl-1H-indol-6-yl]-amine]	20.9%
CNc1ccc2c(Sc3ccccc3[N+](=O)[O-])cn(Cc3cccc(F)c3)c2c1 [Example 5c, [1-(3-Fluoro-benzyl)-3-(2-nitro-phenylsulfanyl)-1H-indol-6-yl]-methyl-amine]	13.3%
CN(C)c1ccc2c(Sc3ccccc3[N+](=O)[O-])cn(Cc3cccnc3)c2c1 [Example 19e, Dimethyl-[3-(2-nitro-phenylsulfanyl)-1-pyridin-3-ylmethyl-1H-indol-6-yl]-amine]	2.6%
CNc1ccc2c(Sc3ccccc3[N+](=O)[O-])cn(Cc3ccccc3F)c2c1 [Example 5b]	0.4%
CNc1ccc2c(Sc3ccccc3[N+](=O)[O-])cn(Cc3cocn3)c2c1 [Example 5j, Methyl-[3-(2-nitro-phenylsulfanyl)-1-oxazol-4-ylmethyl-1H-indol-6-yl]-amine]	14.8%
CNc1ccc2c(Sc3ccccc3[N+](=O)[O-])cn(Cc3ccccc3)c2c1 [Example 5a, [1-Benzyl-3-(2-nitro-phenylsulfanyl)-1H-indol-6-yl]-methyl-amine]	9.2%
N#CCNc1ccc2c(Sc3ccccc3[N+](=O)[O-])cn(Cc3cccnc3)c2c1 [Example 21j, [3-(2-Nitro-phenylsulfanyl)-1-pyridin-3-ylmethyl-1H-indol-6-ylamino]-acetonitrile]	1.0%
CNc1ccc2c(Sc3ccccc3[N+](=O)[O-])cn(Cc3ccco3)c2c1 [Example 5h, [1-Furan-2-ylmethyl-3-(2-nitro-phenylsulfanyl)-1H-indol-6-yl]-methyl-amine]	16.5%
CN(C)c1ccc2c(Sc3ccccc3[N+](=O)[O-])cn(Cc3ccccn3)c2c1 [Example 19c, Dimethyl-[3-(2-nitro-phenylsulfanyl)-1-pyridin-2-ylmethyl-1H-indol-6-yl]-amine]	1.2%
CNc1ccc2c(Sc3ccccc3[N+](=O)[O-])cn(Cc3ccon3)c2c1 [Example 5k, [1-Isoxazol-3-ylmethyl-3-(2-nitro-phenylsulfanyl)-1H-indol-6-yl]-methyl-amine]	11.9%
CNc1ccc2c(Sc3ncccc3[N+](=O)[O-])cn(Cc3cc(F)cc(F)c3)c2c1 [Example 12, [1-(3,5-Difluoro-benzyl)-3-(3-nitro-pyridin-2-ylsulfanyl)-1H-indol-6-yl]-methyl-amine]	5.7%
CNc1ccc2c(S(=O)(=O)c3ccccc3[N+](=O)[O-])cn(Cc3cc(F)cc(F)c3)c2c1 [Example 13, [1-(3,5-Difluoro-benzyl)-3-(2-nitro-benzenesulfonyl)-1H-indol-6-yl]-methyl-amine]	18.9%
CNc1ccc2c(Sc3ccccc3C#N)cn(Cc3ccccn3)c2c1 [Example 7, 2-(6-Methylamino-1-pyridin-2-ylmethyl-1H-indol-3-ylsulfanyl)-benzonitrile]	1.1%

Reference: US7812036B2, “Androgens” (N.V. Organon, priority 2004, dated 2010)
